# Experiments:
# markers of inflammation = assay: Expression of markers of inflammation in ectocervical biopsies from women; format: in vivo; conditions: 1 month after initiating DMPA vs no hormonal contraceptive
# DSG1 protein = DSG1 protein levels in vaginal tissue, immunofluorescent staining and confocal microscopy; format: in vivo, mice; conditions: progestin-treated mice vs mice in estrus
# Procedure: Excised mouse vaginas were formaldehyde fixed and paraffin embedded (FFPE), and 10 μm sections mounted on glass slides and de-paraffinized by sequential immersion in 100% xylene, 100% ethanol, 96% ethanol, and sterile DEPC-treated water. Antigen retrieval was performed using 10 mM sodium citrate buffer (pH 6.0) containing 0.05% Tween 20 (both Sigma-Aldrich) (20 minutes at 95° C.). After 3 PBS washes, sections were incubated overnight in 10% normal goat serum (Abcam, Cambridge Mass.) at 4° C., then incubated for 1 h at ambient temperate with rabbit anti-desmoglein-1 (clone EPR6766(B)) antibody, washed and incubated for 1 h with AlexaFluor® 488-labeled goat anti-rabbit IgG (antibodies from Abcam) (all antibodies were diluted in PBS with 1% BSA and 0.05% Tween 20). Sections were stained with DAPI and evaluated for levels of DSG1 protein (defined by calculating pixel numbers per 100 μm^2) using confocal microscopy and ImageJ software.
# [1] = system: vaginal microbiota / pro-inflammatory mediators; assay: Bacteria and inflammation in genital mucosa; format: in vivo, mice
# Excerpt: While prior clinical studies identified increased inflammation in the genital tracts of women using DMPA, the underlying mechanism for this effect had been undefined. Because DMPA increased genital mucosal permeability, it was posited DMPA increases inflammation by promoting entry of the vaginal microbiota into mucosal tissue.
# genital mucosal barrier [2] = assay: Murine tissue permeability assay, low molecular weight fluorescent molecules given intravaginally; format: in vivo, mice
# Procedure: Effects of progestins on genital mucosal barrier permeability were evaluated by intravaginally (ivag) administering 457 Da and 70 KDa-sized fluorescent molecules to mice in estrus or diestrus-stage or after DMPA or LNG treatment. Mice were grouped as follows: untreated in estrus, untreated in diestrus, DMPA treated, or LNG treated. The mice were intravaginally administered a PBS solution containing Lucifer yellow (457 Da) and Texas-Red-conjugated dextran (70 KDa). Animals were euthanized 45 minutes later to assess vaginal tissue penetration of these molecules by confocal microscopy. […] Mucosal permeability was increased moderately by diestrus, but dramatically by DMPA or LNG. Conversely, permeability increases were negligible in estrus-stage mice and mice treated with MePRDL or DMPA and RU486. This indicates exogenous progestins increase genital mucosal permeability.
# To evaluate mucosal permeability to low molecular weight molecules, indicated groups of mice were sedated, and 10 μL of a PBS solution containing 62.5 μg of dextran Texas-Red® (DR) (MW=70,000 Da) and 50 μg of Lucifer yellow CH, lithium salt (LY) (MW=457.2 Da) (both from Life Technologies) administered intravaginally. 45 minutes later, mice were euthanized, and excised vaginal tissue fixed in formaldehyde. Fixed tissue was embedded in agarose, and 200-300 μm specimens were sectioned with a vibratome. After counterstaining with 4,6-diamidino-2-phenylindole (DAPI), confocal microscopy images were acquired by sequential scanning to prevent fluorescence crossover.
# genital mucosa = assay: Entry of activated hPBMCs into vaginal tissue of humanized mice; format: in vivo, hPBMC-engrafted NSG mice; conditions: CFSE-labeled activated hPBMCs ivag, 15 h; DMPA vs DMPA and E cream
# Procedure: Because mice treated with DMPA and E were HSV-2 resistant and DMPA facilitated entry of leukocytes into vaginal tissue, it was posited that exogenous E blocks HIV-1 acquisition in a humanized mouse model of cell-associated HIV transmission. Human PBMC (hPBMCs)-engrafted NSG mice treated with DMPA or DMPA and E cream were ivag inoculated with CFSE-labeled activated hPBMCs. 15 h later, entry of these cells into vaginal tissue was examined by confocal microscopy. […] Humanized NSG mice treated as described above were also ivag infected with cell-associated HIV-1 (10^6 hPBMCs infected with HIV-1 Ba-L). 10 days later, serum was collected to quantify HIV-1 load via qRT-PCR.
# To evaluate mucosal permeability to activated leukocytes, 10^6 human peripheral blood mononuclear cells (hPBMC)/ml were plated in RPMI-1640 supplemented with 10% FBS, 2 mM L-glutamine, 1 mM sodium pyruvate, non-essential amino acids, 50 μM 2-mercaptoethanol, 100 U/ml penicillin, 100 μg/ml streptomycin and 50 μg/ml gentamycin (Mediatech, Manassas, Va.) (henceforth termed complete medium). Plated cells were stimulated for 48 hours with 5 μg/ml of phytohemagglutinin (PHA) (Sigma-Aldrich, St. Louis Mo.), centrifuged, re-suspended (2×10^6 cells/ml) in complete media supplemented with 10 IU/ml recombinant human IL-2 (rhIL-2) (PeproTech, Rocky Hill, N.J.), and incubated another 5 days. […]
# genital mucosal barrier [3] = assay: Murine tissue permeability assay, low molecular weight fluorescent molecules given intravaginally; format: in vivo, mice; conditions: germ-free mice
# desmoglein-1a (DSG1a) = assay: qRT-PCR of Dsg1a gene expression in vaginal tissue; format: in vivo, mice; conditions: progestin-treated mice vs mice in estrus
# Procedure: To define progestin-mediated changes in mucosal permeability, vaginal tissue from mice in estrus, diestrus, or after DMPA or LNG treatment was used to measure expression of the desmosomal cadherins desmoglein-1a (DSG1a) and desmocollin-1 (DSC1).
# Human ectocervical and murine vaginal tissues were immediately immersed in 1 mL of RNAlater® (Qiagen), stored for 24 h at 4° C., and stored long-term at −80° C. RNA isolated using the RNeasy Lipid Tissue Kit (Qiagen) using manufacturer's instructions was re-suspended in nuclease-free water and quantified using a NanoDrop spectrophotometer (Thermo Scientific). The following mouse primers were utilized: desmocollin 1 (Mm00496525_ml), desmoglein-1α (Mm00809994_s1), ephrinA3 (Mm01212723_g1) and pyruvate carboxylase (Mm00500992_ml) as housekeeping reference gene (all from Thermo Scientific). These human primers were used: desmoglein-1 (Hs00355084_m1) and glucose-6-phosphate isomerase (Hs00976711_m1) as a housekeeping reference gene. To define relative gene expression, 100 ng of RNA was mixed with TaqMan® RNA-to-Ct™ 1-Step Kit and adequate primer (final volume of 10 μL/well) using manufacturer's instructions (Life Technologies). qRT-PCR was performed using a Quantstudio3 Thermal Cycler, and data analyzed via Quanstudio Software (Applied Biosystems).
# [4] = DMPA-treated vs. estrus-stage mice
compound,measurement,setting,value
CC(=O)O[C@]1(C(C)=O)CC[C@H]2[C@@H]3C[C@H](C)C4=CC(=O)CC[C@]4(C)[C@H]3CC[C@@]21C [DMPA],expression of markers of inflammation in ectocervical tissue,markers of inflammation,significantly higher
same,DSG1a protein expression in vaginal tissue,DSG1 protein,significantly reduced
same,Gram-negative bacteria in the mucosa,[1]; [4],more Gram-negative bacteria
same,levels of pro-inflammatory mediators in the mucosa,[1]; [4],higher levels of pro-inflammatory mediators
same,inflammation,[1]; germ-free mice,not inflammation
same,penetration of the 457 Da molecules into vaginal tissue,"genital mucosal barrier [2]; confocal images, 45 minutes after ivag administration",greatest penetration
same,Mucosal permeability increase,"genital mucosal barrier [2]; mice, ivag Lucifer yellow (457 Da) and Texas-Red dextran (70 KDa), 45 minutes, confocal microscopy",dramatically
same,penetration of activated hPBMCs into genital mucosa,genital mucosa,more readily penetrated the genital mucosa
same,permeability,genital mucosal barrier [3],increased permeability
same,DSG1a gene expression in vaginal tissue,desmoglein-1a (DSG1a),decrease gene expression levels
